In patent US20250051338A1, “TYK2 DEGRADERS AND USES THEREOF” (Kymera Therapeutics, Inc., priority 2021, published 2025):

What was measured:
Assay type in all cases: cell-based
[1] = target: T1, TYK2 (Homo sapiens, UniProt P29597); test: TYK2 degradation MSD assay in human PBMC cells; design: endogenous in cells; host or cells: human PBMC; settings: 4 to 24 hours incubation, read-out: TYK2 MSD DC50 rating in human PBMC
Outline: (§1)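 DC50 values reflect dose-dependent decrease of TYK2 protein, read by MSD after cells were exposed to compound (top 1 to 10 μM, 1:3, 9 doses) for 4 to 24 hours at 37° C.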

[2] = target: T1, TYK2; test: TYK2 degradation MSD assay in OCI-LY10 cells; design: endogenous in cells; host or cells: EBV-B cells; settings: 4 to 24 hours incubation, read-out: TYK2 MSD DC50 rating in OCI-LY10
Outline: as §1

[3] = target: T1, TYK2; test: TYK2 degradation MSD assay in EBV-B cells; design: endogenous in cells; host or cells: EBV-B cells; settings: 4 to 24 hours incubation, read-out: TYK2 MSD DC50 rating in EBV-B
Outline: as §1

T1 sequence (P29597 whole entry): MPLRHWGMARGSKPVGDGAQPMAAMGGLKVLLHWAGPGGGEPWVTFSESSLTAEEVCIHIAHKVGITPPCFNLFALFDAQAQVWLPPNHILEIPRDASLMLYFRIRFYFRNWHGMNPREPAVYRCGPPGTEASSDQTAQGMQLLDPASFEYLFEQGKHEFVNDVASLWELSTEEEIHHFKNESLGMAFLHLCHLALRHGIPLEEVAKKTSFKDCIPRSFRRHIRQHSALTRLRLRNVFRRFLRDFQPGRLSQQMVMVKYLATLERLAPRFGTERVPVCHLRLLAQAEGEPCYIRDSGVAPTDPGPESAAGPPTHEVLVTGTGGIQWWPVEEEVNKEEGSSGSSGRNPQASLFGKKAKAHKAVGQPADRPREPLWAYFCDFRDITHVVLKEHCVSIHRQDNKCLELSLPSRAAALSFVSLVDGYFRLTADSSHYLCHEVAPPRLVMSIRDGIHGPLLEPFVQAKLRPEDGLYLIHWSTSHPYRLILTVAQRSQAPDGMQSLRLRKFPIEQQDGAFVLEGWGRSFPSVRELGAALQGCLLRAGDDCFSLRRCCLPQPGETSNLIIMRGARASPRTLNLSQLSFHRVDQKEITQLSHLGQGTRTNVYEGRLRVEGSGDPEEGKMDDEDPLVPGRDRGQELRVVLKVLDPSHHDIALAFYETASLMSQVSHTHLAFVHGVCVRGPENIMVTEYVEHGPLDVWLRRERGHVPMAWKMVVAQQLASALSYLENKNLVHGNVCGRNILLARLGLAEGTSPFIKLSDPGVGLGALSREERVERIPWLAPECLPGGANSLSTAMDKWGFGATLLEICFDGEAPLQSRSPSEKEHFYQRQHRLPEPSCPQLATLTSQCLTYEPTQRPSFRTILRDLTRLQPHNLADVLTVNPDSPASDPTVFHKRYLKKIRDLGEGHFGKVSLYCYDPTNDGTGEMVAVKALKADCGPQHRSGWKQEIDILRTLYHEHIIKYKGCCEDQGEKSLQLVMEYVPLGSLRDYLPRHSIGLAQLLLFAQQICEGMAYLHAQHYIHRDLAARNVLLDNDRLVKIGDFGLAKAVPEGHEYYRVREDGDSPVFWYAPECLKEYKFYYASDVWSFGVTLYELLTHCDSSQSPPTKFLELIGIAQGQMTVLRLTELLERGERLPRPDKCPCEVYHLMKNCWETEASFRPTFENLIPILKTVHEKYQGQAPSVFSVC

With CNc1cc(N2CCc3c(-c4ccc(C(=O)N5CCN([C@H]6CC[C@H](c7ccc(-c8ccc9c(c8)n(C)c(=O)n9C8CCC(=O)NC8=O)cc7)CC6)CC5)cn4)cccc32)nn2c(C(=O)N[C@@H]3C[C@@H]3F)cnc12 (stereo partly drawn) [Example K616] the DC50 [1] was > 100 nM, the DC50 [2] was 1 to 10 nM and the DC50 [3] was > 100 nM.

For CNc1cc(Nc2cccc(CN3CCC34CN(c3ncc(C#Cc5ccc6c(c5)n(C)c(=O)n6C5CCC(=O)NC5=O)cn3)C4)c2)nn2c(C(=O)NC3CC3)cnc12 (stereo not drawn) [Example K580], the DC50 [1] was > 100 nM, the DC50 [2] was > 100 nM and the DC50 [3] was > 100 nM.

With CNc1cc(Nc2cccn(-c3cc(C(=O)NCCOCCOCCOCCOCCOCCOCCc4cccc5c4n(C)c(=O)n5C4CCC(=O)NC4=O)ccn3)c2=O)nn2c(C(=O)N[C@@H]3C[C@@H]3F)cnc12 (stereo partly drawn) [Example K244] the DC50 [1] was > 100 nM, the DC50 [2] was > 100 nM and the DC50 [3] was > 100 nM.

With CNc1cc(Nc2cccn(-c3cccc(C(=O)NCCCCCCCCc4cccc5c4n(C)c(=O)n5C4CCC(=O)NC4=O)c3)c2=O)nn2c(C(=O)N[C@@H]3C[C@@H]3F)cnc12 (stereo partly drawn) [Example K224] the DC50 [1] was 10 to 100 nM, the DC50 [2] was > 100 nM and the DC50 [3] was > 100 nM.

With CNc1cc(-c2cccc(C(=O)NCCCCCCCCc3ccc4c(c3)n(C)c(=O)n4C3CCC(=O)NC3=O)c2)nn2c(C(=O)NC3C[C@@H]3F)cnc12 (stereo partly drawn) [Example K309] the DC50 [1] was > 100 nM, the DC50 [2] was > 100 nM and the DC50 [3] was > 100 nM.

With CNc1cc(Nc2cccc(CN(C)Cc3ccc(-c4ccc5c(c4)n(C)c(=O)n5C4CCC(=O)NC4=O)cn3)c2)nn2c(C(=O)NC3CC3)cnc12 (stereo not drawn) [Example K605] the DC50 [1] was > 100 nM, the DC50 [2] was > 100 nM and the DC50 [3] was > 100 nM.

With CNC(=O)c1cnc(Nc2ccc(C(=O)NCCCCCCCCc3cccc4c3n(C)c(=O)n4C3CCC(=O)NC3=O)cn2)cc1Nc1cccc(-c2ncc(F)cn2)c1OC (stereo not drawn) [Example K116] the DC50 [1] was 1 to 10 nM, the DC50 [2] was > 100 nM and the DC50 [3] was 1 to 10 nM.

For CNc1cc(Nc2cccn(-c3ccc(C(=O)C4CCC([C@H]5CCN(c6ccc7c(c6)n(C)c(=O)n7C6CCC(=O)NC6=O)C5)CN4)cn3)c2=O)nn2c(C(=O)N[C@@H]3C[C@@H]3F)cnc12 (stereo partly drawn) [Example K425], the DC50 [1] was > 100 nM, the DC50 [2] was > 100 nM and the DC50 [3] was > 100 nM.

With CNc1cc(-c2cccc(C(=O)NCCCCc3cccc4c3n(C)c(=O)n4C3CCC(=O)NC3=O)c2)nn2c(C(=O)N[C@@H]3C[C@@H]3F)cnc12 (stereo partly drawn) [Example K305] the DC50 [1] was > 100 nM, the DC50 [2] was > 100 nM and the DC50 [3] was > 100 nM.

CNC(=O)c1cnc(Nc2ccc(CN3CC4(CCN(c5ccc6c(c5)n(C)c(=O)n6C5CCC(=O)NC5=O)CC4)C3)cn2)cc1Nc1cccc(-c2ncc(F)cn2)c1OC (stereo not drawn) [Example K149] was tested, and the DC50 [1] was > 100 nM, the DC50 [2] was > 100 nM and the DC50 [3] was < 1 nM.

With Cn1c(=O)n(C2CCC(=O)NC2=O)c2ccc(CCCCCCNc3cc(Nc4cccn(-c5ccccn5)c4=O)nn4c(C(=O)N[C@@H]5C[C@@H]5F)cnc34)cc21 (stereo partly drawn) [Example K207] the DC50 [1] was > 100 nM, the DC50 [2] was > 100 nM and the DC50 [3] was > 100 nM.

For CNc1cc(Nc2cccn(-c3cccc(C(=O)NCCOCCOCCOCCOCCOCCOCCc4ccc5c(c4)n(C)c(=O)n5C4CCC(=O)NC4=O)c3)c2=O)nn2c(C(=O)N[C@@H]3C[C@@H]3F)cnc12 (stereo partly drawn) [Example K243], the DC50 [1] was > 100 nM, the DC50 [2] was > 100 nM and the DC50 [3] was > 100 nM.

In the case of CNc1cc(Nc2cccn(-c3ccc(C(=O)N4CCC5(CN(CC#Cc6ccc7c(c6)n(C)c(=O)n7C6CCC(=O)NC6=O)C5)C4)cn3)c2=O)nn2c(C(=O)N[C@@H]3C[C@@H]3F)cnc12 (stereo partly drawn) [Example K416], the DC50 [1] is reported as > 100 nM, the DC50 [2] is reported as > 100 nM and the DC50 [3] is reported as > 100 nM.

With CNc1cc(-c2cccc(C(=O)NCCCCCCc3cccc4c3n(C)c(=O)n4C3CCC(=O)NC3=O)c2)nn2c(C(=O)N[C@@H]3C[C@@H]3F)cnc12 (stereo partly drawn) [Example K308] the DC50 [1] was > 100 nM, the DC50 [2] was > 100 nM and the DC50 [3] was > 100 nM.

With CNc1cc(Nc2cccn(-c3ccc(C(=O)N4CCN(C(=O)C5CC(N6CCC(OCCCc7ccc8c(c7)n(C)c(=O)n8C7CCC(=O)NC7=O)CC6)C5)CC4)cn3)c2=O)nn2c(C(=O)N[C@@H]3C[C@@H]3F)cnc12 (stereo partly drawn) [Example K423] the DC50 [1] was > 100 nM, the DC50 [2] was 1 to 10 nM and the DC50 [3] was > 100 nM.

For CNC(=O)c1cnc(Nc2cc(C(=O)NCCCCc3ccc4c(c3)n(C)c(=O)n4C3CCC(=O)NC3=O)ccn2)cc1Nc1cccc(-c2ncc(F)cn2)c1OC (stereo not drawn) [Example K126], the DC50 [1] was < 1 nM, the DC50 [2] was > 100 nM and the DC50 [3] was > 100 nM.

For Cn1c(=O)n(C2CCC(=O)NC2=O)c2ccc(-c3ccc(N4CCN(Cc5ccc(-c6cccc(Nc7nn8c(C(=O)N[C@@H]9C[C@@H]9F)cnc8c8c7OCCN8)c6Cl)nc5)CC4)cc3)cc21 (stereo partly drawn) [Example K642], the DC50 [1] was > 100 nM, the DC50 [2] was 1 to 10 nM and the DC50 [3] was > 100 nM.

CNC(=O)c1cnc(Nc2ccc(C(=O)NCCCCc3cccc4c3n(C)c(=O)n4C3CCC(=O)NC3=O)cn2)cc1Nc1ccccc1S(C)(=O)=O (stereo not drawn) [Example K190] was tested, and the DC50 [1] was 1 to 10 nM, the DC50 [2] was > 100 nM and the DC50 [3] was 10 to 100 nM.

In the case of Cn1c(=O)n(C2CCC(=O)NC2=O)c2cccc(C3CN(C4CCN(Cc5ccc(-c6cccc(Nc7ccc8ncc(C(=O)NC9CC9)n8n7)c6)nc5)CC4)C3)c21 (stereo not drawn) [Example K403], the DC50 [1] is reported as > 100 nM, the DC50 [2] is reported as > 100 nM and the DC50 [3] is reported as > 100 nM.

With COc1c(Nc2cc(C(F)F)c3ncc(C(=O)N[C@@H]4C[C@@H]4F)n3n2)cccc1-c1ccc(CN2CCN(c3ccc(-c4ccc5c(c4)n(C)c(=O)n5C4CCC(=O)NC4=O)cc3)CC2)cn1 (mixture of isomers) [Example K539] the DC50 [1] was > 100 nM, the DC50 [2] was > 100 nM and the DC50 [3] was > 100 nM.

For CNC(=O)c1cnc(Nc2ccc(CN3CCC(CC#Cc4cccc5c4n(C)c(=O)n5C4CCC(=O)NC4=O)CC3)cn2)cc1Nc1cccc(-c2ncc(F)cn2)c1OC (stereo not drawn) [Example K136], the DC50 [1] was 1 to 10 nM, the DC50 [2] was > 100 nM and the DC50 [3] was < 1 nM.

In the case of CNc1cc(-c2cnn(C3CN(C(=O)NCCCCc4ccc5c(c4)n(C)c(=O)n5C4CCC(=O)NC4=O)C3)c2)nn2c(C(=O)N[C@@H]3C[C@@H]3F)cnc12 (stereo partly drawn) [Example K314], the DC50 [1] is reported as > 100 nM, the DC50 [2] is reported as > 100 nM and the DC50 [3] is reported as > 100 nM.

For Cn1c(=O)n(C2CCC(=O)NC2=O)c2cccc(C#CC3CCN(Cc4ccc(-c5cccc(Nc6ccc7ncc(C(=O)NC8CC8)n7n6)c5)nc4)CC3)c21 (stereo not drawn) [Example K412], the DC50 [1] was > 100 nM, the DC50 [2] was > 100 nM and the DC50 [3] was > 100 nM.

With CNc1cc(Nc2cccn(-c3ccc(C(=O)NC4CCC(C(=O)N5CCC6(CN(CC#Cc7ccc8c(c7)n(C)c(=O)n8C7CCC(=O)NC7=O)C6)C5)CC4)cn3)c2=O)nn2c(C(=O)N[C@@H]3C[C@@H]3F)cnc12 (stereo partly drawn) [Example K444] the DC50 [1] was 1 to 10 nM, the DC50 [2] was 1 to 10 nM and the DC50 [3] was 1 to 10 nM.

With CNc1cc(Nc2cccn(-c3ccc(C(=O)N[C@H]4CC[C@H](CN(C)C5CCN(Cc6cccc7c6n(C)c(=O)n7C6CCC(=O)NC6=O)CC5)CC4)cn3)c2=O)nn2c(C(=O)N[C@@H]3C[C@@H]3F)cnc12 (stereo partly drawn) [Example K449] the DC50 [1] was > 100 nM, the DC50 [2] was < 1 nM and the DC50 [3] was > 100 nM.

For CNc1cc(Nc2cccc(N3CCC(CN4CC5(C4)CN(c4ccc(-c6ccc7c(c6)n(C)c(=O)n7C6CCC(=O)NC6=O)cc4)C5)CC3)c2OC)nn2c(C(=O)N[C@@H]3C[C@@H]3F)cnc12 (stereo partly drawn) [Example K623], the DC50 [1] was > 100 nM, the DC50 [2] was < 1 nM and the DC50 [3] was > 100 nM.

For Cn1c(=O)n(C2CCC(=O)NC2=O)c2ccc(CCOCCOCCOCCOCCNc3cc(Nc4cccn(-c5ccccn5)c4=O)nn4c(C(=O)NC5C[C@@H]5F)cnc34)cc21 (stereo partly drawn) [Example K202], the DC50 [1] was > 100 nM, the DC50 [2] was > 100 nM and the DC50 [3] was > 100 nM.
